Measurements taken from the NIST ThermoML archive (doi:10.1016/j.jct.2018.02.003).
Numbers after ± are expanded uncertainties.

Settings: Liquid, Vibrating tube method

COC(F)(C(F)(F)C(F)(F)F)C(F)(C(F)(F)F)C(F)(F)F (centres undefined)
mass density [kg/m3]
Settings | 333.15 K | 353.15 K | 373.15 K | 393.15 K
100 kPa | – | 1521.7 ± 0.8 | – | –
1000 kPa | – | 1526.5 ± 0.8 | 1473.5 ± 0.8 | 1417.2 ± 0.8
5000 kPa | – | 1545.6 ± 0.8 | 1497.1 ± 0.8 | 1446.9 ± 0.8
10000 kPa | – | 1566.5 ± 0.9 | 1521.9 ± 0.9 | 1476.7 ± 0.9
15000 kPa | – | 1584.7 ± 1 | 1543.1 ± 0.9 | 1501.4 ± 0.9
20000 kPa | – | 1601 ± 1.1 | 1561.5 ± 1 | 1522.8 ± 1
25000 kPa | 1653 ± 1.2 | 1615.8 ± 1.2 | 1578.3 ± 1.1 | 1541.5 ± 1.1
30000 kPa | 1665.2 ± 1.3 | 1629.5 ± 1.3 | 1593.7 ± 1.2 | 1558.4 ± 1.2
35000 kPa | 1676.5 ± 1.4 | 1642.1 ± 1.4 | 1607.7 ± 1.3 | 1573.8 ± 1.3
40000 kPa | 1687.3 ± 1.5 | 1653.7 ± 1.5 | 1620.4 ± 1.4 | 1588 ± 1.4
45000 kPa | 1697.5 ± 1.7 | 1664.8 ± 1.6 | 1632.5 ± 1.5 | 1601 ± 1.5
50000 kPa | 1707 ± 1.8 | 1675.2 ± 1.7 | 1643.9 ± 1.7 | 1613.3 ± 1.6
55000 kPa | 1716.1 ± 2 | 1685.1 ± 1.9 | 1654.6 ± 1.8 | 1624.9 ± 1.7
60000 kPa | 1724.7 ± 2.1 | 1694.5 ± 2.1 | 1664.7 ± 2 | 1635.8 ± 1.9
65000 kPa | 1733.1 ± 2.3 | 1703.5 ± 2.2 | 1674.3 ± 2.1 | 1646 ± 2
70000 kPa | 1741 ± 2.5 | 1712.1 ± 2.4 | 1683.4 ± 2.3 | 1655.8 ± 2.2
80000 kPa | 1756.1 ± 2.8 | 1728.1 ± 2.7 | 1700.6 ± 2.6 | 1674.1 ± 2.5
90000 kPa | 1770.2 ± 3.2 | 1743.1 ± 3.1 | 1716.5 ± 3 | 1690.9 ± 2.8
100000 kPa | 1783.3 ± 3.5 | 1757 ± 3.4 | 1731.3 ± 3.3 | 1706.5 ± 3.2
110000 kPa | 1795.6 ± 3.9 | 1770.1 ± 3.8 | 1745.1 ± 3.6 | 1721 ± 3.5
120000 kPa | 1807.3 ± 4.3 | 1782.5 ± 4.1 | 1758.1 ± 4 | 1734.7 ± 3.9
130000 kPa | 1818.5 ± 4.6 | 1794.1 ± 4.5 | 1770.3 ± 4.4 | 1747.5 ± 4.2
140000 kPa | 1829.1 ± 5 | 1805.2 ± 4.9 | 1782 ± 4.7 | 1759.7 ± 4.6
